Results published in PubChem BioAssay AID1963865 (Molecular Pharmacology Branch, DTP, NCI, 2024).

Tested on: KRAS PDC multicell spheroid viability
Test: Anticancer human tumor 825966-067-R-J1-PDC patient-derived colon carcinoma cell line growth inhibition [KRAS2]
Conditions: for IC50: curve of first compound; for viability, T/C: stronger effect = lower value
Text: Multicellular complex tumor spheroid response to RAS pathway inhibitors in combination with a targeted agents in patient-derived cell lines with oncogenic KRAS variants from multiple cancer types
A high-throughput screen of multi-cell type tumor spheroids was designed to identify active combinations of targeted small molecules and KRAS pathway inhibitors. Complex spheroids include a stromal component modeled by human endothelial cells (HUVEC) and fibroblasts modeled by human mesenchymal stem cells (MSCs). The concentration ranges selected for each drug and investigational agent were based upon clinically achievable concentrations if the clinical Cmax of the agent was known.
Compounds. The drugs and investigational agents: BI-3406 (NSC825286), BAY-293 (NSC824723), batoprotafib (TNO155; NSC825523), sotorasib (AMG 510; NSC818433), MRTX1257 (NSC819558), elimusertib (BAY 1895344; NSC800525), molibresib (GSK525762; NSC774829), temuterkib (LY3214996; NSC803410), venetoclax (NSC766270), alisertib (NSC759677), olaparib (NSC753686), talazoparib (NSC767125), erdafitinib (NSC781556), ipatasertib (NSC767898), cabozantinib (NSC761068), nintedanib (NSC756659), abemaciclib (NSC768073), docetaxel (NSC628503), trametinib (NSC758246), and sapanisertib (NSC764658) were obtained from the National Cancer Institute (NCI) Developmental Therapeutics Program Chemical Repository. The FDA-approved anticancer drug set is available from the Developmental Therapeutics Program. […] The stock solutions were prepared in dimethyl sulfoxide (DMSO, Sigma-Aldrich, St. Louis, MO, cat. D2650) at 800-fold the tested concentration and stored at -70 degrees C prior to their use. All drugs and investigational agents were tested over a range starting from a high concentration at or near the clinical Cmax and decreasing in half-log increments. If the clinical Cmax for an agent had not been determined, the highest concentration tested was 10 microM.
Cell Culture. All cells were maintained in an incubator at 37 degrees C and 5% CO2 with 95% humidity. The PDC lines were cultured according to standard operating procedures established by the NCI PDMR (https://pdmr.cancer.gov/sops/default.htm). Briefly, all PDCs were thawed and cultured in Matrigel-coated flasks prepared with a working solution of 1X Ham's F-12 nutrient mix, without supplementation (Invitrogen, Waltham, MA, cat. 11765054), 100 U/mL penicillin-streptomycin (Invitrogen, cat. 15140122), and 2.5% Matrigel (Corning Inc., Corning, NY, cat. 354248) for the first three passages. All PDCs were cultured in complete DMEM/F-12 media containing advanced DMEM/F-12 (Invitrogen, cat. 12634028), 4.9% defined fetal bovine serum, heat inactivated (HyClone Laboratories Inc., Logan, UT, cat. SH30070.03HI), 389 ng/mL hydrocortisone (Sigma-Aldrich, cat. H4001), 9.7 ng/mL human EGF recombinant protein (Invitrogen, cat. PHG0313), 23.4 microg/mL adenine (Sigma-Aldrich, cat. A2786), 97.3 U/mL penicillin-streptomycin (Invitrogen, cat. 15140122), 1.9 mM L-glutamine (Invitrogen, cat. 25030081), and 9.7 microM Y-27632 dihydrochloride (Tocris Bioscience, Bristol, United Kingdom, cat. 1254). The PDCs were cultured in complete DMEM/F12 media without 9.7 microM Y-27632 dihydrochloride for at least two passages prior to the screen. The established cell line HOP-62 was cultured in RPMI 1640 medium, HEPES (Invitrogen, cat. 22400105) with 10% defined fetal bovine serum (HyClone Laboratories Inc., cat. SH30070.03) and 2 mM L-glutamine (Invitrogen, cat. 25030081). The pooled donor HUVEC were cultured in endothelial cell growth medium 2 (PromoCell, Heidelberg, Germany, cat. C-22011) and the hMSC were cultured in mesenchymal stem cell growth medium 2 (PromoCell, cat. C-28009). For all experiments, HUVEC and hMSC were used at passages </=5, while the malignant cell lines were used at passages </=15. […]

[1] = second compound 0.1 µM, first compound 0.0316 µM
[2] = second compound 0.1 µM, first compound 0.1 µM
[3] = second compound 0.1 µM, first compound 0.316 µM
[4] = second compound 0.1 µM, first compound 1 µM
[5] = second compound 0.1 µM, first compound 3.16 µM
[6] = second compound 0.316 µM, first compound 0.0316 µM
[7] = second compound 0.316 µM, first compound 0.1 µM
[8] = second compound 0.316 µM, first compound 0.316 µM
[9] = second compound 0.316 µM, first compound 1 µM
[10] = second compound 0.316 µM, first compound 3.16 µM
[11] = second compound 1 µM, first compound 0.0316 µM
[12] = second compound 1 µM, first compound 0.1 µM
[13] = second compound 1 µM, first compound 0.316 µM
[14] = second compound 1 µM, first compound 1 µM
[15] = second compound 1 µM, first compound 3.16 µM
[16] = second compound 3.16 µM, first compound 0.0316 µM
[17] = second compound 3.16 µM, first compound 0.1 µM
[18] = second compound 3.16 µM, first compound 0.316 µM
[19] = second compound 3.16 µM, first compound 1 µM
[20] = second compound 3.16 µM, first compound 3.16 µM
[21] = second compound 10 µM, first compound 0.0316 µM
[22] = second compound 10 µM, first compound 0.1 µM
[23] = second compound 10 µM, first compound 0.316 µM
[24] = second compound 10 µM, first compound 1 µM
[25] = second compound 10 µM, first compound 3.16 µM
[26] = second compound 0.1 µM, first compound 10 µM
[27] = second compound 0.316 µM, first compound 10 µM
[28] = second compound 1 µM, first compound 10 µM
[29] = second compound 3.16 µM, first compound 10 µM
[30] = second compound 10 µM, first compound 10 µM
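Also: spheroids exposed to compounds for 7 days.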
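For viability, T/C in this document: 100% = DMSO vehicle control viability.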

Compound	IC50 (second compound 0.1 µM)	IC50 (second compound 0.316 µM)	IC50 (second compound 1 µM)	IC50 (second compound 3.16 µM)	IC50 (second compound 10 µM)	viability, T/C [1]	viability, T/C [2]	viability, T/C [3]	viability, T/C [4]	viability, T/C [5]	viability, T/C [6]	viability, T/C [7]	viability, T/C [8]	viability, T/C [9]	viability, T/C [10]	viability, T/C [11]	viability, T/C [12]	viability, T/C [13]	viability, T/C [14]	viability, T/C [15]	also measured
CC1COCCN1c1cc(-c2ccnn2C)c2ccnc(-c3ccn[nH]3)c2n1 (stereo not given) + C=CC(=O)N1CCN(c2nc(=O)n(-c3c(C)ccnc3C(C)C)c3nc(-c4c(O)cccc4F)c(F)cc23)C(C)C1	0.308 µM	> 3.16 µM	0.263 µM	3.16 µM	> 3.16 µM	135%	123%	41.5%	56.2%	47.4%	142%	72.9%	60.3%	44.9%	60.4%	125%	71%	41.5%	51.1%	41.4%	viability, T/C (second compound 0.1 µM, first compound 0.01 µM): 110%; viability, T/C (second compound 0.316 µM, first compound 0.01 µM): 137%; viability, T/C (second compound 1 µM, first compound 0.01 µM): 137%; viability, T/C (second compound 3.16 µM, first compound 0.01 µM): 106%; viability, T/C [16]: 146%; viability, T/C [17]: 70.4%; viability, T/C [18]: 70.8%; viability, T/C [19]: 51.2%; viability, T/C [20]: 43%; viability, T/C (second compound 10 µM, first compound 0.01 µM): 137%; viability, T/C [21]: 108%; viability, T/C [22]: 64.6%; viability, T/C [23]: 75.8%; viability, T/C [24]: 59.1%; viability, T/C [25]: 47.2%
CC1OCC2(CCN(c3cnc(Sc4ccnc(N)c4Cl)c(N)n3)CC2)C1N (stereo not given) + C=CC(=O)N1CCN(c2nc(=O)n(-c3c(C)ccnc3C(C)C)c3nc(-c4c(O)cccc4F)c(F)cc23)C(C)C1	9.58 µM	6.95 µM	7.78 µM	6.05 µM	4.49 µM	78.4%	66.8%	98.4%	85%	94.1%	82.8%	96.1%	79.4%	78.3%	94.1%	82.1%	69.3%	74.8%	75.5%	76.3%	viability, T/C [26]: 48.6%; viability, T/C [27]: 33.3%; viability, T/C [28]: 43.1%; viability, T/C [16]: 93.5%; viability, T/C [17]: 70.1%; viability, T/C [18]: 83.2%; viability, T/C [19]: 81%; viability, T/C [20]: 90.4%; viability, T/C [29]: 23.9%; viability, T/C [21]: 80.5%; viability, T/C [22]: 74.3%; viability, T/C [23]: 106%; viability, T/C [24]: 92.9%; viability, T/C [25]: 70.1%; viability, T/C [30]: 4.36%
CCNC(=O)CC1N=C(c2ccc(Cl)cc2)c2cc(OC)ccc2-n2c(C)nnc21 (stereo not given) + C=CC(=O)N1CCN(c2nc(=O)n(-c3c(C)ccnc3C(C)C)c3nc(-c4c(O)cccc4F)c(F)cc23)C(C)C1	> 10 µM	> 10 µM	> 10 µM	> 10 µM	1.29 µM	81%	80.9%	108%	111%	99.5%	79.6%	76.6%	68%	104%	85.6%	80.9%	91.5%	102%	83.3%	83.9%	viability, T/C [26]: 81.8%; viability, T/C [27]: 85.2%; viability, T/C [28]: 63.6%; viability, T/C [16]: 74.8%; viability, T/C [17]: 82.3%; viability, T/C [18]: 98.3%; viability, T/C [19]: 91.8%; viability, T/C [20]: 50.1%; viability, T/C [29]: 61.5%; viability, T/C [21]: 104%; viability, T/C [22]: 72.5%; viability, T/C [23]: 95.4%; viability, T/C [24]: 54.3%; viability, T/C [25]: 32.4%; viability, T/C [30]: 36.9%
Cn1nccc1Nc1nccc(-c2cc3c(s2)C(C)(C)N(CCN2CCOCC2)C3=O)n1 + C=CC(=O)N1CCN(c2nc(=O)n(-c3c(C)ccnc3C(C)C)c3nc(-c4c(O)cccc4F)c(F)cc23)C(C)C1	> 10 µM	> 10 µM	7.09 µM	> 10 µM	> 10 µM	89.9%	101%	119%	100%	81.3%	84.2%	91.3%	122%	107%	83.2%	86.9%	83.6%	103%	98.7%	78.4%	viability, T/C [26]: 85.8%; viability, T/C [27]: 72.2%; viability, T/C [28]: 38%; viability, T/C [16]: 95.3%; viability, T/C [17]: 95.7%; viability, T/C [18]: 111%; viability, T/C [19]: 82.8%; viability, T/C [20]: 77.7%; viability, T/C [29]: 67%; viability, T/C [21]: 73.4%; viability, T/C [22]: 86.5%; viability, T/C [23]: 92.1%; viability, T/C [24]: 82.5%; viability, T/C [25]: 77.8%; viability, T/C [30]: 73%
